Earlier results as cited in patent publication US5994297A, “Therapy for Staphylococcus aureus” (Eli Lilly and Company, priority 1998, dated 1999).

System: Staphylococcus aureus strain "Mu50"
Conditions: Staphylococcus aureus strain Mu50 (MRSA, reduced glycopeptide sensitivity); Hiramatsu et al., J. of Antimicrobial Chemotherapy, 1997, 40, 135-146

CN[C@H](CC(C)C)C(=O)N[C@H]1C(=O)N[C@@H](CC(N)=O)C(=O)N[C@H]2C(=O)N[C@H]3C(=O)N[C@H](C(=O)N[C@H](C(=O)O)c4cc(O)cc(O)c4-c4cc3ccc4O)[C@H](O)c3ccc(c(Cl)c3)Oc3cc2cc(c3O[C@@H]2O[C@H](CO)[C@@H](O)[C@H](O)[C@H]2O[C@H]2C[C@](C)(N)[C@H](O)[C@H](C)O2)Oc2ccc(cc2Cl)[C@H]1O [vancomycin]
vancomycin MIC: 8 µg/mL
